Measurements reported in PubChem BioAssay (NCI).
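Growth conditions: 96-well plates. Treatment: test compound, 48 hours, 5 concentrations. Analysis: linear interpolation between bracketing concentrations; unreached endpoints set to highest concentration. TGI is the concentration that stops growth completely.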

What was measured:
Experiment in all cases: growth of human tumour cells (NCI), 48 h
[1] = test system: HCT-116 colon
[2] = test system: HOP-92 NSCLC
[3] = test system: RPMI-8226 leukemia
[4] = test system: MDA-MB-231 breast
[5] = test system: SNB-19 CNS
[6] = test system: 786-0 renal
[7] = test system: SF-295 CNS
[8] = test system: HCT-15 colon
[9] = test system: UACC-62 melanoma
[10] = test system: NCI-H522 lung
[11] = test system: OVCAR-8 ovarian
[12] = test system: TK-10 renal
[13] = test system: ACHN renal
[14] = test system: SN12C renal
[15] = test system: SR leukemia
[16] = test system: HT29 colon
[17] = test system: MCF7 breast
[18] = test system: MOLT-4 leukemia
[19] = test system: HOP-62 NSCLC
[20] = test system: K-562 leukemia
[21] = test system: EKVX NSCLC
[22] = test system: CAKI-1 renal
[23] = test system: SF-268 CNS
[24] = test system: SNB-75 CNS
[25] = test system: OVCAR-5 ovarian
[26] = test system: MDA-MB-435
[27] = test system: NCI-H23 lung
[28] = test system: PC-3 prostate
[29] = test system: UO-31 renal
[30] = test system: OVCAR-3 ovarian
[31] = test system: COLO 205 colon
[32] = test system: DU-145 prostate
[33] = test system: MDA-N
[34] = test system: NCI-H460 lung
[35] = test system: KM12 colon
[36] = test system: UACC-257 melanoma
[37] = test system: A498 renal
[38] = test system: NCI-H226 lung
[39] = test system: LOX IMVI melanoma
[40] = test system: SK-MEL-28 melanoma
[41] = test system: SK-MEL-2 melanoma
[42] = test system: U251 CNS
[43] = test system: BT-549 breast
[44] = test system: HL-60(TB) leukemia
[45] = test system: MALME-3M melanoma
[46] = test system: T-47D breast
[47] = test system: M14 melanoma
[48] = test system: SK-OV-3 ovarian
[49] = test system: SK-MEL-5 melanoma
[50] = test system: IGROV1 ovarian
[51] = test system: OVCAR-4 ovarian
[52] = test system: RXF 393 renal
[53] = test system: HS 578T breast
[54] = test system: CCRF-CEM leukemia
[55] = test system: NCI/ADR-RES ovarian
[56] = test system: A549 NSCLC
[57] = test system: SW-620 colon
[58] = test system: SF-539 CNS
[59] = test system: HCC-2998 colon

Compound: CCOC(=O)C1=C(O)C2C3CC4C2C(O)=C(C(=O)OCC)C2C1C3C42 (stereo not given)
- TGI [1]: > 100 µM
- TGI [2]: > 100 µM
- TGI [3]: > 100 µM
- TGI [4]: > 100 µM
- TGI [5]: > 100 µM
- TGI [6]: > 100 µM
- TGI [7]: > 100 µM
- TGI [8]: > 100 µM
- TGI [9]: > 100 µM
- TGI [10]: > 100 µM
- TGI [11]: > 100 µM
- TGI [12]: > 100 µM
- TGI [13]: > 100 µM
- TGI [14]: > 100 µM
- TGI [15]: > 100 µM
- TGI [16]: > 100 µM
- TGI [17]: > 100 µM
- TGI [18]: > 100 µM
- TGI [19]: > 100 µM
- TGI [20]: > 100 µM
- TGI [21]: > 100 µM
- TGI [22]: > 100 µM
- TGI [23]: > 100 µM
- TGI [24]: > 100 µM
- TGI [25]: > 100 µM
- TGI [26]: > 100 µM
- TGI [27]: > 100 µM
- TGI [28]: > 100 µM
- TGI [29]: > 100 µM
- TGI [30]: > 100 µM
- TGI [31]: > 100 µM
- TGI [32]: > 100 µM
- TGI [33]: > 100 µM
- TGI [34]: > 100 µM
- TGI [35]: > 100 µM
- TGI [36]: > 100 µM
- TGI [37]: > 100 µM
- TGI [38]: > 100 µM
- TGI [39]: > 100 µM
- TGI [40]: > 100 µM
- TGI [41]: > 100 µM
- TGI [42]: > 100 µM
- TGI [43]: > 100 µM
- TGI [44]: > 100 µM
- TGI [45]: > 100 µM
- TGI [46]: > 100 µM
- TGI [47]: > 100 µM
- TGI [48]: > 100 µM
- TGI [49]: > 100 µM
- TGI [50]: > 100 µM
- TGI [51]: > 100 µM
- TGI [52]: > 100 µM
- TGI [53]: > 100 µM
- TGI [54]: > 100 µM
- TGI [55]: 35.2 µM
- TGI [56]: > 100 µM
- TGI [57]: > 100 µM
- TGI [58]: > 100 µM

Compound: Cc1ccc(/C=N/n2c(-c3ccc(C)cc3)n[nH]c2=O)cc1
- TGI [1]: > 100 µM
- TGI [2]: > 100 µM
- TGI [3]: > 100 µM
- TGI [4]: > 100 µM
- TGI [5]: > 100 µM
- TGI [6]: > 100 µM
- TGI [7]: > 100 µM
- TGI [8]: > 100 µM
- TGI [9]: > 100 µM
- TGI [10]: > 100 µM
- TGI [11]: > 100 µM
- TGI [12]: > 100 µM
- TGI [13]: > 100 µM
- TGI [14]: > 100 µM
- TGI [15]: 61.3 µM
- TGI [16]: > 100 µM
- TGI [17]: > 100 µM
- TGI [18]: > 100 µM
- TGI [19]: > 100 µM
- TGI [20]: > 100 µM
- TGI [21]: > 100 µM
- TGI [22]: > 100 µM
- TGI [23]: > 100 µM
- TGI [24]: > 100 µM
- TGI [25]: > 100 µM
- TGI [26]: > 100 µM
- TGI [27]: > 100 µM
- TGI [28]: > 100 µM
- TGI [29]: > 100 µM
- TGI [30]: > 100 µM
- TGI [31]: > 100 µM
- TGI [32]: > 100 µM
- TGI [33]: > 100 µM
- TGI [34]: > 100 µM
- TGI [35]: > 100 µM
- TGI [36]: > 100 µM
- TGI [37]: 95.1 µM
- TGI [38]: > 100 µM
- TGI [40]: > 100 µM
- TGI [41]: > 100 µM
- TGI [42]: > 100 µM
- TGI [43]: > 100 µM
- TGI [44]: > 100 µM
- TGI [45]: > 100 µM
- TGI [46]: > 100 µM
- TGI [47]: > 100 µM
- TGI [48]: 66.9 µM
- TGI [49]: > 100 µM
- TGI [50]: > 100 µM
- TGI [51]: > 100 µM
- TGI [52]: 72.9 µM
- TGI [53]: > 100 µM
- TGI [54]: > 100 µM
- TGI [59]: > 100 µM
- TGI [55]: > 100 µM
- TGI [56]: > 100 µM
- TGI [57]: > 100 µM
- TGI [58]: > 100 µM

Compound: COc1ccc(C2OC(=O)c3ccc4ccccc4c32)c(C)c1 (stereo not given)
- TGI [1]: > 45.7 µM
- TGI [2]: > 89.8 µM
- TGI [3]: > 65.4 µM
- TGI [4]: > 100 µM
- TGI [5]: > 100 µM
- TGI [6]: 54 µM
- TGI [7]: 14.7 µM
- TGI [8]: > 60.5 µM
- TGI [9]: > 100 µM
- TGI [10]: 20.9 µM
- TGI [11]: 56.5 µM
- TGI [12]: > 95.3 µM
- TGI [13]: > 100 µM
- TGI [14]: > 100 µM
- TGI [15]: > 89.7 µM
- TGI [16]: 15.1 µM
- TGI [17]: 29.9 µM
- TGI [18]: > 39.8 µM
- TGI [19]: > 90.2 µM
- TGI [20]: > 75.7 µM
- TGI [21]: > 87.8 µM
- TGI [22]: > 100 µM
- TGI [23]: > 100 µM
- TGI [24]: 44.7 µM
- TGI [25]: > 100 µM
- TGI [26]: 6.02 µM
- TGI [27]: 41.8 µM
- TGI [28]: > 100 µM
- TGI [29]: > 83.8 µM
- TGI [30]: 53.1 µM
- TGI [31]: > 35.1 µM
- TGI [32]: > 100 µM
- TGI [33]: 4.28 µM
- TGI [34]: > 54.3 µM
- TGI [35]: > 45.6 µM
- TGI [36]: > 100 µM
- TGI [37]: 66.2 µM
- TGI [38]: 56.9 µM
- TGI [39]: > 100 µM
- TGI [40]: > 71.3 µM
- TGI [41]: 18.4 µM
- TGI [42]: 30.6 µM
- TGI [43]: > 100 µM
- TGI [44]: > 24.6 µM
- TGI [45]: > 100 µM
- TGI [46]: > 86 µM
- TGI [47]: > 38 µM
- TGI [48]: 60.1 µM
- TGI [49]: 17.6 µM
- TGI [50]: > 67.8 µM
- TGI [51]: > 100 µM
- TGI [52]: > 65.9 µM
- TGI [53]: 45.2 µM
- TGI [54]: > 100 µM
- TGI [59]: 12.3 µM
- TGI [55]: 5.61 µM
- TGI [56]: > 100 µM
- TGI [57]: > 72.9 µM
- TGI [58]: 40.5 µM
